The source of these data is ChEMBL document CHEMBL3297692, “Discovery of naphthyl-fused 5-membered lactams as a new class of m1 positive allosteric modulators” (ACS Med Chem Lett, 2014).

For orientation: efflux ratio means a quotient of directional permeabilities that is used to spot active efflux. In general, Papp refers to the rate of passage across a membrane or cell layer, normalised by area and donor concentration. A word on the logD: it is lipophilicity at a set pH, counting ionised and neutral species. A low value points to lower lipophilicity. One may read the solubility as the dissolved amount per volume that the medium holds. A word on the half-life: it is how long it takes for the measured level to halve. Broadly, the clearance is a measure of how efficiently the substance is removed, as volume per time.

Values after ≈ are worked out from the molar mass of the structure shown. Active and inactive are the calls of the source. The rule behind the calls is not given here.

Series [1] in a line: Plasma protein binding in human by equilibrium dialysis method. It counts as ADME, cell-free. The note with it: read-out: PPB (converted). Background: Equilibrium dialysis compares concentrations on both sides of a semipermeable membrane.
Series [2] in a line: Plasma protein binding in rat by equilibrium dialysis method. It counts as ADME, cell-free. The note with it: read-out: PPB (converted).
For the next series, the system named is MDR1a. Description: Effect on rat MDR1a-mediated drug transport assessed as efflux ratio of permeability from basolateral to apical side over apical to basolateral side. It counts as ADME. The note with it: not told.
Series [3] in a line: Apparent passive permeability of the compound. It counts as physicochemical. The note with it: not told.
For series [4], the target named is T1, Muscarinic acetylcholine receptor M1 (Homo sapiens) (UniProt P11229).
T1 sequence (whole entry): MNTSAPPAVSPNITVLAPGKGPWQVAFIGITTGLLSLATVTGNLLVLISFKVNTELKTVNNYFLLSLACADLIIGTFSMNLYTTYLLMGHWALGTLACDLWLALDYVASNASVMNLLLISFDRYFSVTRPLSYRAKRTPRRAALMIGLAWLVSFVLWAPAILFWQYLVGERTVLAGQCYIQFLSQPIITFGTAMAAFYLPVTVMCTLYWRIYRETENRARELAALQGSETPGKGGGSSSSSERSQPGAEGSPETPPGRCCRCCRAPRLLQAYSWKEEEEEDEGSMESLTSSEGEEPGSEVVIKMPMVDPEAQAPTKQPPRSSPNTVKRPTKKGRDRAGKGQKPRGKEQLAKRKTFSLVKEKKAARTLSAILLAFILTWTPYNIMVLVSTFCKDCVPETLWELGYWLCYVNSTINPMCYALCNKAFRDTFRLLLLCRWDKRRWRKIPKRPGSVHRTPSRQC
Description: Positive allosteric modulation of human mAChR1 expressed in CHONFAT cells assessed as potention of acetylcholine-induced effect incubated for 4 mins prior to acetylcholine addition measured after 4 mins by FLIPR assay. Format: cell-based.

Series [5] concerns the target MDR1 (ABCB1, P-glycoprotein) (Homo sapiens, UniProt P08183). Nature of the series: Effect on human MDR1-mediated drug transport assessed as efflux ratio of permeability from basolateral to apical side over apical to basolateral side. Format: ADME. The note with it: not told.
The nature of series [6]: Lipophilicity, log D of the compound by HPLC analysis. It counts as physicochemical.
The subject of the next series is Nucleic Acid. Description: Ratio of drug uptake in Sprague-Dawley rat cerebrospinal fluid to unbound plasma level in rat. It counts as ADME.
A short description of series [7]: Solubility of the compound at pH 2. The note with it: buffer. It counts as physicochemical.
The nature of series [8]: Solubility of the compound at pH 7. It counts as physicochemical. The note with it: buffer.
Series [9] has as its system Plasma. Description: Plasma concentration in Sprague-Dawley rat at 10 mg/kg, po. It counts as ADME, organism-based. More on the design: dose 10 mg/kg, route oral. The note with it: in vivo.
Another series has as its system Cerebrospinal fluid. Description: Drug uptake in cerebrospinal fluid in Sprague-Dawley rat at 10 mg/kg, po. Format: ADME, organism-based. The arrangement: dose 10 mg/kg, route oral. The note with it: in vivo, read-out: Drug uptake.
The subject of series [10] is Mus musculus. Nature of the series: Reversal of scopolamine-induced memory deficit in ip dosed B6SJL mouse contextual fear conditioning model at 1 uM plasma level after 30 mins relative to vehicle-treated control. It counts as functional, organism-based.
Series [11] can be described thus: Fraction unbound in human plasma by equilibrium dialysis method. Format: ADME, cell-free.
The subject of series [12] is Mus musculus. Description: Reversal of scopolamine-induced memory deficit in B6SJL mouse contextual fear conditioning model at 1 mg/kg, ip after 30 mins relative to vehicle-treated control. It counts as functional, organism-based. More on the design: dose 1 mg/kg.
Series [13] has as its target T1, Muscarinic acetylcholine receptor M1 (Homo sapiens). Description: Potentiation of human mAChR1 expressed in CHONFAT cells assessed as fold shift in acetylcholine response curve at 1.8 uM incubated for 4 mins prior to acetylcholine addition measured after 4 mins relative to control. Format: cell-based.
The nature of series [14]: Half life in rat at 2 mg/kg, iv. It counts as ADME, organism-based. The arrangement: dose 2 mg/kg, route intravenous. The note with it: in vivo.
Series [15] can be described thus: Volume of distribution at steady state in rat at 2 mg/kg, iv. The note with it: in vivo, read-out: Vdss. Format: ADME, organism-based. More on the design: dose 2 mg/kg, route intravenous.
The nature of series [16]: Volume of distribution at steady state in dog at 0.125 mg/kg, iv. The note with it: in vivo, read-out: Vdss. Format: ADME, organism-based, Canis lupus familiaris. The arrangement: dose 0.125 mg/kg, route intravenous.
A short description of series [17]: Clearance in dog at 0.125 mg/kg, iv. It counts as ADME, organism-based, Canis lupus familiaris. More on the design: dose 0.125 mg/kg, route intravenous. The note with it: in vivo.
Series [18] can be described thus: Half life in dog at 0.125 mg/kg, iv. Format: ADME, organism-based, Canis lupus familiaris. More on the design: dose 0.125 mg/kg, route intravenous. The note with it: in vivo.
The subject of series [19] is Plasma. Nature of the series: Plasma concentration in B6SJL mouse contextual fear conditioning model at 1 mg/kg, ip. Format: ADME, organism-based. More on the design: dose 1 mg/kg, route intraperitoneal. The note with it: in vivo.
Series [20] in a line: Clearance in rat at 2 mg/kg, iv. More on the design: dose 2 mg/kg, route intravenous. The note with it: in vivo. It counts as ADME, organism-based.
Series [21] can be described thus: Fraction unbound in rat plasma by equilibrium dialysis method. It counts as ADME, cell-free.
Series [22] has as its target T1, Muscarinic acetylcholine receptor M1 (Homo sapiens). Nature of the series: Potentiation of human mAChR1 expressed in CHONFAT cells assessed as fold shift acetylcholine response curve incubated for 4 mins prior to acetylcholine addition measured after 4 mins relative to control. It counts as cell-based.

Sequence of MDR1 (ABCB1, P-glycoprotein) (P08183 whole entry): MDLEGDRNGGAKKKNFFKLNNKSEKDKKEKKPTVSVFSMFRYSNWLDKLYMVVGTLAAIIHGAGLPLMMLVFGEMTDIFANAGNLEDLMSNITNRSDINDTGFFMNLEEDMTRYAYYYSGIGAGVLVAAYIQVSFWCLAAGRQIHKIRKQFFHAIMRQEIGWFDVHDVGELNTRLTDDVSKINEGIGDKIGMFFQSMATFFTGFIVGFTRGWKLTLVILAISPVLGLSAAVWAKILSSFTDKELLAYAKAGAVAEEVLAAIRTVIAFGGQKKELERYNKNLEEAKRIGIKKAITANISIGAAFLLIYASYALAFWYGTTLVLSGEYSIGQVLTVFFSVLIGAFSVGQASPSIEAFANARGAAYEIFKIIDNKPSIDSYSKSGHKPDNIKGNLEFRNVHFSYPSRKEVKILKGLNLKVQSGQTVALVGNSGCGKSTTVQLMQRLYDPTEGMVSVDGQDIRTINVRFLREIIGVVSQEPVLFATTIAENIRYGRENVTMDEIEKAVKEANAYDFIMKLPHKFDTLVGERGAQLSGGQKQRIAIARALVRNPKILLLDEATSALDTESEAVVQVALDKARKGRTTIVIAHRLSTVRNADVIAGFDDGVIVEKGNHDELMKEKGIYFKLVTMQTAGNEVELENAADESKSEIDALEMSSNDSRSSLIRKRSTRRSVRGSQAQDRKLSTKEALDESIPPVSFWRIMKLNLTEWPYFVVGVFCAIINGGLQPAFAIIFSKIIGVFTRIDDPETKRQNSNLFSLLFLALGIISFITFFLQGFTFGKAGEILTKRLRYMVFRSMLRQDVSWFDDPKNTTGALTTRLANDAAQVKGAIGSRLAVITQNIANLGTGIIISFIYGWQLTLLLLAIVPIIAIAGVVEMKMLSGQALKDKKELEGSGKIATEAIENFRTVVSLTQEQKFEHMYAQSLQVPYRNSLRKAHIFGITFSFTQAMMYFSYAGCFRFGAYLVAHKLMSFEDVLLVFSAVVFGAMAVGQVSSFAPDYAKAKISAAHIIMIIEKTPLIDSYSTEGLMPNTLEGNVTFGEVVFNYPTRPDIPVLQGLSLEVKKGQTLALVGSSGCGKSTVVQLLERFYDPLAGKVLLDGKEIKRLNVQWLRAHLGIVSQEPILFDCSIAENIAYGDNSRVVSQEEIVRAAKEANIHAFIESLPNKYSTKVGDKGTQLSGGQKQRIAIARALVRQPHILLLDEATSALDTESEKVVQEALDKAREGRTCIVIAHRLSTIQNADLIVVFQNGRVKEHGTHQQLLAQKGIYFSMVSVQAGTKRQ

Turning to `O=C1c2cc(CN3CCC(F)(c4ccccn4)CC3)c3ccccc3c2CN1[C@H]1CCCC[C@@H]1O`, the values for the fraction unbound in [1] and in series [2] were 0.03 and 0.015, respectively. Also, the efflux ratio with MDR1a came to 2.7; in [5] it was 2.1. The Papp in series [3] worked out at 34 ×10⁻⁶ cm/s. The IP in series [4] was 58 nM.

On to `Cc1cccc(C2(C#N)CCN(Cc3cc4c(c5ccccc35)CN([C@H]3CCCC[C@@H]3O)C4=O)CC2)n1`, for which the fraction unbound in series [1] and in [2] was 0.01 in each case. In addition, the efflux ratio with MDR1a turned out to be 3.1; in [5], 1.5. In addition, in series [3], the Papp is 28 ×10⁻⁶ cm/s. The IP in series [4] is 27 nM.

Regarding `N#CC1(c2ccccn2)CCN(Cc2cc3c(c4ccccc24)CN(C2CCCOC2)C3=O)CC1` (centres undefined), the IP in [4] was 1500 nM.

On to `CC1c2c(cc(CN3CCC(C#N)(c4ccccn4)CC3)c3ccccc23)C(=O)N1[C@H]1CCCC[C@@H]1O` (mixture of isomers), for which the fraction unbound in series [1] was 0.06; in series [2], 0.014. Besides, the logD in series [6] worked out at 3.4. Besides, the Ratio in the series on Nucleic Acid is on record as 0.3. Moreover, the solubility was determined as 198 µM in [7] and 19 µM in series [8]. Further, the efflux ratio was found to be 4.1 with MDR1a and 1.7 in series [5]. For the same compound, the Papp in series [3] was found to be 29 ×10⁻⁶ cm/s. Further, the IP in series [4] was 19 nM. Further, the concentration with Plasma [9] came to 1120 nM; in the series on Cerebrospinal fluid, 4.7 nM.

As for `N#CC1(c2cccnn2)CCN(Cc2cc3c(c4ccccc24)CN([C@H]2CCCC[C@@H]2O)C3=O)CC1`, the fraction unbound in [1] is 0.144; in [2] it was 0.146. The Papp in series [3] was 27 ×10⁻⁶ cm/s. Also, the IP in series [4] is 27 nM.

On to `N#CC1(c2ccccn2)CCN(Cc2cc3c(c4ccccc24)CN(C2CCOCC2)C3=O)CC1`, for which, in series [4], the IP was 280 nM.

For `N#CC1(c2ccccn2)CCN(Cc2cc(C(=O)O)c(=O)n3ccccc23)CC1`, in the series on Mus musculus [10], the result was Active.

In the case of `N#CC1(c2ccccn2)CCN(Cc2cc3c(c4ccccc24)CN([C@H]2CCCC[C@@H]2O)C3=O)CC1`, the fraction unbound was 0.08 in [1], 0.08 in series [11], 0.05 in series [2] and 0.05 in series [21]. In addition, the outcome with Mus musculus [12] was Active. This compound came in with a logD in series [6] of 2.9. Further, in the series with Nucleic Acid, the Ratio was found to be 0.51. For the same compound, the solubility in series [7] amounted to 195 µM (≈ 93.7 µg/mL); in series [8], 11 µM (≈ 5.29 µg/mL). Besides, the fold change (FC) in series [13] worked out at 40. In addition, the half-life in [14] is 12 h; in [18] it was 6.7 h. For the same compound, the Vd in series [15] amounted to 2.8 L/kg; in series [16] it was 1.2 L/kg. Besides, the efflux ratio was found to be 4.3 in the series on MDR1a and 3.2 in series [5]. The clearance in [17] amounted to 2.1 mL/min/kg; in series [20] it was 4.1 mL/min/kg. Besides, the Papp in series [3] turned out to be 34 ×10⁻⁶ cm/s. Also, the IP in series [4] was found to be 15 nM. Also, the concentration with Plasma [9] is 5180 nM; in the series on Cerebrospinal fluid, 134 nM; with Plasma [19], 1500 nM. In addition, the Activity result in series [22] is “Dose-dependent effect”.

For `N#CC1(c2ccccn2)CCN(Cc2cc3c(c4ccccc24)CN([C@H]2CCCC[C@H]2O)C3=O)CC1`, the IP in [4] came to 150 nM.

As for `N#CC1(c2ccncc2)CCN(Cc2cc3c(c4ccccc24)CN([C@H]2CCCC[C@@H]2O)C3=O)CC1`, the efflux ratio in the series with MDR1a was 49; in series [5], 26. Also, the Papp in [3] worked out at 30 ×10⁻⁶ cm/s. The IP in series [4] stood at 22 nM.

On to `N#CC1(c2cnccn2)CCN(Cc2cc3c(c4ccccc24)CN([C@H]2CCCC[C@@H]2O)C3=O)CC1`, for which the fraction unbound is 0.086 in series [1] and 0.142 in [2]. Moreover, the efflux ratio with MDR1a was determined as 11; in series [5], 8. Moreover, the Papp in series [3] was determined as 31 ×10⁻⁶ cm/s. The IP in series [4] turned out to be 31 nM.

As for `N#CC1(c2cccnc2)CCN(Cc2cc3c(c4ccccc24)CN([C@H]2CCCC[C@@H]2O)C3=O)CC1`, in [3], the Papp is 32 ×10⁻⁶ cm/s. Also, the IP in series [4] was 22 nM.

`N#CC1(c2ccncn2)CCN(Cc2cc3c(c4ccccc24)CN([C@H]2CCCC[C@@H]2O)C3=O)CC1`: the fraction unbound in series [1] is 0.09; in series [2], 0.07. Also, the efflux ratio in the series on MDR1a came out at 20; in [5] it was 6. The Papp in [3] was found to be 29 ×10⁻⁶ cm/s. Also, in series [4], the IP amounted to 17 nM.

As to `Cc1ccnc(C2(C#N)CCN(Cc3cc4c(c5ccccc35)CN([C@H]3CCCC[C@@H]3O)C4=O)CC2)c1`, the fraction unbound in [1] was 0.006; in series [2] it was 0.007. The compound also yielded a logD in series [6] of 3.3. For the same compound, in the series on Nucleic Acid, the Ratio is recorded as 0.52. The solubility was 179 µM (≈ 88.5 µg/mL) in series [7] and 3 µM (≈ 1.48 µg/mL) in series [8]. Moreover, the efflux ratio in the series with MDR1a stood at 4.5; in [5] it was 1.3. The Papp in [3] was 22 ×10⁻⁶ cm/s. The IP in series [4] is 16 nM. The concentration came out at 2340 nM with Plasma [9] and 8.6 nM in the series on Cerebrospinal fluid.

For `N#CC1(c2ccccn2)CCN(Cc2cc3c(c4ccccc24)CN(c2ccccc2F)C3=O)CC1`, in [4], the IP worked out at 290 nM.

Take `N#CC1(c2ccccn2)CCN(Cc2cc3c(c4ccccc24)CN([C@@H]2CCCC[C@H]2O)C3=O)CC1`: the IP in series [4] worked out at 540 nM.

As to `N#CC1(c2ccccc2)CCN(Cc2cc3c(c4ccccc24)CN([C@H]2CCCC[C@@H]2O)C3=O)CC1`, the fraction unbound in series [1] is 0.011; in series [2], 0.006. The efflux ratio in the series with MDR1a amounted to 3.4; in series [5] it was 1.7. In addition, the apparent permeability (Papp) in series [3] is 23 ×10⁻⁶ cm/s. For the same compound, in series [4], the IP amounted to 83 nM.
